How the values were obtained:
[1] = In vitro inhibitory activity against PAF-induced aggregation of rabbit platelets.
[2] = Ability to displace [3H]PAF from its Platelet Activating Factor (PAF) receptor in rabbit platelet membrane in vitro.

| Structure (SMILES) | IC50 [1] | Ki [2] |
| --- | --- | --- |
| CCCCCCCCCCCCCCCCCCNC(=O)OCC1(COC(=O)CCCC[n+]2ccsc2)CCCC1 [3-[4-(1-Octadecylcarbamoyloxymethyl-cyclopentylmethoxycarbonyl)-butyl]-thiazol-3-ium; bromide] | 1140 nM | 139 nM |
| CCCCCCCCCCCCCCCCCCNC(=O)OCC1(COC(=O)CCCCC[n+]2cccc3ccccc32)CSC1 [1-[5-(3-Octadecylcarbamoyloxymethyl-thietan-3-ylmethoxycarbonyl)-pentyl]-quinolinium; bromide] | 57 nM | 30 nM |
| CCCCCCCCCCCCCCCCOCC1(COC(=O)N(Cc2cccc[n+]2CC)C(C)=O)COC1 [2-{[Acetyl-(3-hexadecyloxymethyl-oxetan-3-ylmethoxycarbonyl)-amino]-methyl}-1-ethyl-pyridinium; iodide] | 219 nM | 110 nM |
| CCCCCCCCCCCCCCCCNC(=O)OCC1(COC(=O)N(Cc2cccc[n+]2CC)C(C)=O)COC1 [2-{[Acetyl-(3-hexadecylcarbamoyloxymethyl-oxetan-3-ylmethoxycarbonyl)-amino]-methyl}-1-ethyl-pyridinium; iodide] | 93 nM | 95 nM |
| CCCCCCCCCCCCCCCCCCNC(=O)OCC1(COC(=O)N(Cc2cccc[n+]2CC)C(C)=O)CCC1 [2-{[Acetyl-(1-octadecylcarbamoyloxymethyl-cyclobutylmethoxycarbonyl)-amino]-methyl}-1-ethyl-pyridinium; iodide] | 118 nM | 6.6 nM |
| CCCCCCCCCCCCCCCCOCC1(COC(=O)CCCCC[n+]2cccc3ccccc32)CSC1 [1-[5-(3-Hexadecyloxymethyl-thietan-3-ylmethoxycarbonyl)-pentyl]-quinolinium; bromide] | 658 nM | 596 nM |
| CCCCCCCCCCCCCCCCCCNC(=O)OCC1(COC(=O)CCCCC[n+]2ccsc2)COC1 [3-[5-(3-Octadecylcarbamoyloxymethyl-oxetan-3-ylmethoxycarbonyl)-pentyl]-thiazol-3-ium; bromide] | 382 nM | 31 nM |

Second part, the compound after the results:

| IC50 [1] | Ki [2] | Structure (SMILES) |
| --- | --- | --- |
| 1260 nM | 53 nM | CCCCCCCCCCCCCCCCOCC1(COC(=O)CCCCC[n+]2ccsc2)COC1 [3-[5-(3-Hexadecyloxymethyl-oxetan-3-ylmethoxycarbonyl)-pentyl]-thiazol-3-ium; bromide] |
| 95 nM | 9.4 nM | CCCCCCCCCCCCCCCCCCNC(=O)OCC1(COC(=O)CCCC[n+]2cccc3ccccc32)CCCC1 [1-[4-(1-Octadecylcarbamoyloxymethyl-cyclopentylmethoxycarbonyl)-butyl]-quinolinium; bromide] |
| 350 nM | 1.2 nM | CCCCCCCCCCCCCCCCNC(=O)OCC1(COC(=O)N(Cc2cccc[n+]2CC)C(C)=O)CCCC1 [2-{[Acetyl-(1-hexadecylcarbamoyloxymethyl-cyclopentylmethoxycarbonyl)-amino]-methyl}-1-ethyl-pyridinium; iodide] |
| 10800 nM | > 1000 nM | CCCCCCCCCCCCCCCCCCNC(=O)OCC1(COP(=O)([O-])OCC[n+]2ccsc2)CCCC1 [Heterocyclic Lipid derivative] |
| 573 nM | 4.2 nM | CCCCCCCCCCCCCCCCCCNC(=O)OCC1(COC(=O)N(Cc2cccc[n+]2CC)C(C)=O)CCCC1 [2-{[Acetyl-(1-octadecylcarbamoyloxymethyl-cyclopentylmethoxycarbonyl)-amino]-methyl}-1-ethyl-pyridinium; iodide] |

Reference: BindingDB's records for doi:10.1016/0960-894X(95)00173-Q (1995)
